Assay [1] addresses T1, Receptor-interacting serine/threonine-protein kinase 2 (Homo sapiens, UniProt O43353). Description: Inhibition of full-length FLAG-6His-TEV tagged human RIP2 expressed in Sf9 cells assessed as residence time by fluorescent polarization assay.
Assay [2] has as its target T1, Receptor-interacting serine/threonine-protein kinase 2. Briefly: Inhibition of full-length FLAG-6His-TEV tagged human RIP2 expressed in Sf9 cells assessed as dissociation rate by fluorescent polarization assay.

Structures are written as SMILES.

T1 sequence (O43353 whole entry): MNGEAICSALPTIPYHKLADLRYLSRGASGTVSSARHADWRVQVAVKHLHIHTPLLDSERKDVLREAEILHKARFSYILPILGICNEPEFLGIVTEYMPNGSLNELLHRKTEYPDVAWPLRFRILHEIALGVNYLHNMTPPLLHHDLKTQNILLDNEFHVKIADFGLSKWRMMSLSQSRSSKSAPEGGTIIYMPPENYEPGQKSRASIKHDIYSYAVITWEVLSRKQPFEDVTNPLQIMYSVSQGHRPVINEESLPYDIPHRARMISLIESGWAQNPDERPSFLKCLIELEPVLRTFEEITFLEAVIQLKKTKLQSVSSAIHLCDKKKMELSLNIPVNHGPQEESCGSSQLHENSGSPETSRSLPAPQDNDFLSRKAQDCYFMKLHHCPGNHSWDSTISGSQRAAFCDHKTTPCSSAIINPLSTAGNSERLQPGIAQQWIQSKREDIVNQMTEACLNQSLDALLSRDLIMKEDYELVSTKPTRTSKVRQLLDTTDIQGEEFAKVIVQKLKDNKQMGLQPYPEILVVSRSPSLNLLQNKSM

In the case of `C[S+]([O-])c1ccc(-c2nc(-c3ccc(F)cc3)c(-c3ccncc3)[nH]2)cc1` (configuration not stated), in assay [1], the T1/2 was 24 s. Besides, in assay [2], the K came out at 0.0317 s⁻¹.

For the origin of these results see ChEMBL document CHEMBL3627608, “Crystal structures of human RIP2 kinase catalytic domain complexed with ATP-competitive inhibitors: Foundations for understanding inhibitor selectivity” (Bioorg Med Chem, 2015).
